Positions of bridges follow the written chain, without caps; N, C: chain ends. Non-standard residues stand in square brackets, D forms with d. Residues, ends and D or L forms follow the SMILES beside them. 2Thi = N[C@@H](Cc1cccs1)C(=O)O; Cha = N[C@@H](CC1CCCCC1)C(=O)O; Nva = CCC[C@H](N)C(=O)O
The molecules below were run against T1, endothelin receptor (Bos taurus, UniProt P28088) (assay: Endothelin receptor-antagonizing activity: inhibition of 125I-endothelin-1 binding to bovine cerebellum membrane fraction). Conditions: 125I-Endothelin-1, bovine cerebellum membrane fraction, 25° C. for 2 hours; read-out: IC50: Concentration causing 50% inhibition of endothelin1 binding.
T1 construct: the suspension was used as a membrane fraction liquid; from tissue; host or cells: bovine cerebellum membrane fraction
T1 sequence (P28088 27-441): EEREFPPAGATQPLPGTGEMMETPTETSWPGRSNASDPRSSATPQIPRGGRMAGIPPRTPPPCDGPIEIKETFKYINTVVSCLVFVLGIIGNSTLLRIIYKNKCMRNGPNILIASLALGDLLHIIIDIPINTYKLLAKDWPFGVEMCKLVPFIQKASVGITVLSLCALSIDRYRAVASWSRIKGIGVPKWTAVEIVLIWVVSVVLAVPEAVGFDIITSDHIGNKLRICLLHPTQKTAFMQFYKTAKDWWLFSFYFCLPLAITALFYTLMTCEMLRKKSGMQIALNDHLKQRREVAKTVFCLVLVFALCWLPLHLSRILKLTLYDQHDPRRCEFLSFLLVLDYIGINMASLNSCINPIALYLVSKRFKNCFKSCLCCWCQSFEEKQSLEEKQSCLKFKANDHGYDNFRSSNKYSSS
Description: Bovine cerebellum tissue was homogenized at 4° C. by using POLYTRON (type PT10/35, manufactured by Kinematic Gmbh Co.) in a buffer solution A (1 mM NaHCO3, 5 mM ethylenediaminetetraacetic acid, 5 μg/ml leupeptin, 5 μg/ml pepstatin A, 40 μM phenylmethylsulfonyl fluoride, pH 8.3).
The obtained suspension was centrifuged for 10 minutes at 8,000 G and 4° C., and the resulting supernatant was centrifuged for 60 minutes at 40,000 G and 4° C. to obtain pellets. The obtained pellets were suspended in a buffer solution A and again centrifuged for 60 minutes at 40,000 G and 4° C. The resulting solid substance was prepared as a suspension containing 2 mg/ml of protein, and the suspension was used as a membrane fraction liquid. […] These mixtures were incubated at 25° C. for 2 hours, and then filtered with a GF/B glass filter (produced by Whatman Co.). […] The inhibition ratio against endothelin receptor binding activity was calculated according to the following equation:
Inhibition ratio (%)=(C-A/C-B)×100
B: Radioactivity in the presence of unlabelled endothelin-1
C: Radioactivity in the absence of both of the compound shown in Table 2 and unlabelled endothelin-1

| Structure (SMILES) | IC50 [nM] |
| --- | --- |
| CC[C@@H](C)[C@@H](NC(=O)[C@H](Cc1cccs1)NC(=O)[C@@H](NC(=O)[C@H](CC(C)C)NC(=O)[C@H](Cc1c[nH]cn1)NC(=O)[C@H](C)NC(=O)[C@H](Cc1ccccc1)NC(=O)[C@H](Cc1ccc(O)cc1)NC(=O)[C@@H](NC(=O)[C@H](Cc1c[nH]c2ccccc12)NC(=O)[C@H](CC(=O)O)NC(=O)[C@@H]1CCCN1C(=O)[C@H](C)NC(=O)[C@@H](NC(=O)CNC(=O)[C@H](Cc1c[nH]cn1)NC(=O)[C@H](Cc1c[nH]c2ccccc12)NC(=O)[C@H](CC(N)=O)NC(=O)CN)[C@@H](C)O)C(C)C)[C@@H](C)O)C(=O)N[C@@H](Cc1c[nH]c2ccccc12)C(=O)O [Compound 31, HGlyAsnTrpHisGlyThrAlaProAspTrpValTyrPheAlaHisLeuThrThiD-IleTrpOH] (H-GNWHGTAPDWVYFAHLT[2Thi][dI]W-OH) | 210 |
| CC[C@H](C)[C@H](NC(=O)[C@H](CC(=O)O)NC(=O)[C@H](CC(C)C)NC(=O)[C@H](Cc1c[nH]cn1)NC(=O)[C@H](C)NC(=O)[C@H](Cc1ccccc1)NC(=O)[C@H](Cc1ccc(O)cc1)NC(=O)[C@@H](NC(=O)[C@H](Cc1c[nH]c2ccccc12)NC(=O)[C@@H]1CSSC[C@H](N)C(=O)N[C@@H](CC(N)=O)C(=O)N[C@@H](Cc2c[nH]c3ccccc23)C(=O)N[C@@H](Cc2c[nH]cn2)C(=O)NCC(=O)N[C@@H]([C@@H](C)O)C(=O)N[C@@H](C)C(=O)N2CCC[C@H]2C(=O)N1)C(C)C)C(=O)N[C@H](C(=O)N[C@@H](Cc1c[nH]c2ccccc12)C(=O)O)[C@@H](C)CC [Compound 33] (H-CNWHGTAPCWVYFAHLDIIW-OH; disulfide 1-9) | 0.16 |
| CC[C@H](C)[C@H](NC(=O)[C@H](Cc1cccs1)NC(=O)[C@@H](NC(=O)[C@H](CC(C)C)NC(=O)[C@H](Cc1c[nH]cn1)NC(=O)[C@H](C)NC(=O)[C@H](Cc1ccccc1)NC(=O)[C@H](Cc1ccc(O)cc1)NC(=O)[C@@H](NC(=O)[C@H](Cc1c[nH]c2ccccc12)NC(=O)[C@@H]1CSSC[C@H](N)C(=O)N[C@@H](CC(=O)O)C(=O)N[C@@H](Cc2c[nH]c3ccccc23)C(=O)N[C@@H](CCCCN)C(=O)NCC(=O)N[C@@H]([C@@H](C)O)C(=O)N[C@@H](CO)C(=O)N2CCC[C@H]2C(=O)N1)C(C)C)[C@@H](C)O)C(=O)N[C@@H](Cc1c[nH]c2ccccc12)C(=O)O [Compound 35] (H-CDWKGTSPCWVYFAHLT[2Thi]IW-OH; disulfide 1-9) | 1.6 |
| CC[C@H](C)[C@H](NC(=O)[C@H](CC(C)C)NC(=O)[C@@H](NC(=O)[C@H](CC(C)C)NC(=O)[C@H](Cc1c[nH]cn1)NC(=O)[C@H](C)NC(=O)[C@H](Cc1ccccc1)NC(=O)[C@H](Cc1ccc(O)cc1)NC(=O)[C@@H](NC(=O)[C@H](Cc1c[nH]c2ccccc12)NC(=O)[C@@H]1CSSC[C@H](N)C(=O)N[C@@H](CC(N)=O)C(=O)N[C@@H](Cc2c[nH]c3ccccc23)C(=O)N[C@@H](Cc2c[nH]cn2)C(=O)NCC(=O)N[C@@H]([C@@H](C)O)C(=O)N[C@@H](C)C(=O)N2CCC[C@H]2C(=O)N1)C(C)C)[C@@H](C)O)C(=O)N[C@@H](Cc1c[nH]c2ccccc12)C(=O)O [Compound 37] (H-CNWHGTAPCWVYFAHLTLIW-OH; disulfide 1-9) | 8.7 |
| CC[C@H](C)[C@H](NC(=O)[C@H](CC1CCCCC1)NC(=O)[C@@H](NC(=O)[C@H](CC(C)C)NC(=O)[C@H](Cc1c[nH]cn1)NC(=O)[C@H](C)NC(=O)[C@H](Cc1ccccc1)NC(=O)[C@H](Cc1ccc(O)cc1)NC(=O)[C@@H](NC(=O)[C@H](Cc1c[nH]c2ccccc12)NC(=O)[C@@H]1CSSC[C@H](N)C(=O)N[C@@H](CC(N)=O)C(=O)N[C@@H](Cc2c[nH]c3ccccc23)C(=O)N[C@@H](Cc2c[nH]cn2)C(=O)NCC(=O)N[C@@H]([C@@H](C)O)C(=O)N[C@@H](C)C(=O)N2CCC[C@H]2C(=O)N1)C(C)C)[C@@H](C)O)C(=O)N[C@@H](Cc1c[nH]c2ccccc12)C(=O)O [Compound 39] (H-CNWHGTAPCWVYFAHLT[Cha]IW-OH; disulfide 1-9) | 280 |
| CC[C@H](C)[C@H](NC(=O)[C@H](CC(C)C)NC(=O)[C@@H](NC(=O)[C@H](CC(C)C)NC(=O)[C@H](Cc1c[nH]cn1)NC(=O)[C@H](C)NC(=O)[C@H](Cc1ccccc1)NC(=O)[C@H](Cc1ccc(O)cc1)NC(=O)[C@@H](NC(=O)[C@H](Cc1c[nH]c2ccccc12)NC(=O)[C@@H]1CC(=O)NCC(=O)N[C@@H](CC(N)=O)C(=O)N[C@@H](Cc2c[nH]c3ccccc23)C(=O)N[C@@H](Cc2c[nH]cn2)C(=O)NCC(=O)N[C@@H]([C@@H](C)O)C(=O)N[C@@H](C)C(=O)N2CCC[C@H]2C(=O)N1)C(C)C)[C@@H](C)O)C(=O)N[C@@H](Cc1c[nH]c2ccccc12)C(=O)O [Compound 40] (GNWHGTAPDWVYFAHLTLIW-OH; lactam N-9) | 34 |
| CC[C@H](C)[C@H](NC(=O)[C@H](Cc1cccs1)NC(=O)[C@@H](NC(=O)[C@H](CC(C)C)NC(=O)[C@H](Cc1c[nH]cn1)NC(=O)[C@H](C)NC(=O)[C@H](Cc1ccccc1)NC(=O)[C@H](Cc1ccc(O)cc1)NC(=O)[C@@H](NC(=O)[C@H](Cc1c[nH]c2ccccc12)NC(=O)[C@@H]1CC(=O)NCC(=O)N[C@@H](CC(N)=O)C(=O)N[C@@H](Cc2c[nH]c3ccccc23)C(=O)N[C@@H](Cc2c[nH]cn2)C(=O)NCC(=O)N[C@@H]([C@@H](C)O)C(=O)N[C@@H](C)C(=O)N2CCC[C@H]2C(=O)N1)C(C)C)[C@@H](C)O)C(=O)N[C@@H](Cc1c[nH]c2ccccc12)C(=O)O [Compound 41] (GNWHGTAPDWVYFAHLT[2Thi]IW-OH; lactam N-9) | 2.5 |
| CC[C@H](C)[C@H](NC(=O)[C@H](Cc1cccs1)NC(=O)[C@@H](NC(=O)[C@H](CC(C)C)NC(=O)[C@H](Cc1c[nH]cn1)NC(=O)[C@H](C)NC(=O)[C@H](Cc1ccccc1)NC(=O)[C@H](Cc1ccc(O)cc1)NC(=O)[C@@H](NC(=O)[C@H](Cc1c[nH]c2ccccc12)NC(=O)[C@H](CC(=O)O)NC(=O)[C@@H]1CCCN1C(=O)[C@H](C)NC(=O)[C@@H](NC(=O)CNC(=O)[C@H](Cc1c[nH]cn1)NC(=O)[C@H](Cc1c[nH]c2ccccc12)NC(=O)[C@H](CC(N)=O)NC(=O)CN)[C@@H](C)O)C(C)C)[C@@H](C)O)C(=O)N[C@H](Cc1c[nH]c2ccccc12)C(=O)O [Compound 42, HGlyAsnTrpHisGlyThrAlaProAspTrpValTyrPheAlaHisLeuThrThiIleD-TrpOH] (H-GNWHGTAPDWVYFAHLT[2Thi]I[dW]-OH) | 210 |
| CCC[C@H](NC(=O)[C@@H](Cc1c[nH]c2ccccc12)NC(=O)[C@H](C)NC(=O)[C@H](Cc1ccccc1)NC(=O)[C@H](Cc1ccc(O)cc1)NC(=O)[C@@H](NC(=O)[C@H](Cc1c[nH]c2ccccc12)NC(=O)[C@H](CC(=O)O)NC(=O)[C@@H]1CCCN1C(=O)[C@H](C)NC(=O)[C@@H](NC(=O)CNC(=O)[C@H](Cc1c[nH]cn1)NC(=O)[C@H](Cc1c[nH]c2ccccc12)NC(=O)[C@H](CC(N)=O)NC(=O)CN)[C@@H](C)O)C(C)C)C(=O)N[C@@H](CCC(=O)O)C(=O)N[C@H](C(=O)N[C@@H](C(=O)N[C@@H](Cc1c[nH]c2ccccc12)C(=O)O)[C@H](C)CC)[C@@H](C)CC [Compound 44, HGlyAsnTrpHisGlyThrAlaProAspTrpValTyrPheAlaD-TrpNvaGluIleD-IleTrpOH] (H-GNWHGTAPDWVYFA[dW][Nva]EI[dI]W-OH) | 290 |
| CC[C@H](C)[C@H](NC(=O)[C@H](CCSC)NC(=O)[C@H](CO)NC(=O)[C@H](CC(C)C)NC(=O)[C@H](Cc1c[nH]cn1)NC(=O)[C@H](C)NC(=O)[C@@H](Cc1ccccc1)NC(=O)[C@H](Cc1ccc(O)cc1)NC(=O)[C@@H](NC(=O)[C@H](Cc1c[nH]c2ccccc12)NC(=O)[C@H](CC(=O)O)NC(=O)[C@@H]1CCCN1C(=O)[C@H](C)NC(=O)[C@@H](NC(=O)CNC(=O)[C@H](Cc1c[nH]cn1)NC(=O)[C@H](Cc1c[nH]c2ccccc12)NC(=O)[C@H](CC(N)=O)NC(=O)CN)[C@@H](C)O)C(C)C)C(=O)N[C@@H](Cc1c[nH]c2ccccc12)C(=O)O [Compound 45, HGlyAsnTrpHisGlyThrAlaProAspTrpValTyrD-PheAlaHisLeuSerMetIleTrpOH] (H-GNWHGTAPDWVY[dF]AHLSMIW-OH) | 3.3 |
| CC[C@H](C)[C@H](NC(=O)[C@H](Cc1cccs1)NC(=O)[C@@H](NC(=O)[C@H](CC(C)C)NC(=O)[C@H](Cc1c[nH]cn1)NC(=O)[C@H](C)NC(=O)[C@H](Cc1ccccc1)NC(=O)[C@H](Cc1ccc(O)cc1)NC(=O)[C@@H]1CCCN1C(=O)[C@H](Cc1c[nH]c2ccccc12)NC(=O)[C@H](CC(=O)O)NC(=O)[C@@H]1CCCN1C(=O)[C@H](C)NC(=O)[C@@H](NC(=O)CNC(=O)[C@H](Cc1c[nH]cn1)NC(=O)[C@H](Cc1c[nH]c2ccccc12)NC(=O)[C@H](CC(N)=O)NC(=O)CN)[C@@H](C)O)[C@@H](C)O)C(=O)N[C@@H](Cc1c[nH]c2ccccc12)C(=O)O [Compound 48, HGlyAsnTrpHisGlyThrAlaProAspTrpProTyrPheAlaHisLeuThrThiIleTrpOH] (H-GNWHGTAPDWPYFAHLT[2Thi]IW-OH) | 5 |
